Laboratory results as given in BindingDB's records for doi:10.1016/j.ejmech.2013.04.056 (Jamia Hamdard (Hamdard University), 2013).

Target: T1, Prostaglandin G/H synthase 1 (Ovis aries, UniProt P05979)
T1 sequence (P05979 whole entry): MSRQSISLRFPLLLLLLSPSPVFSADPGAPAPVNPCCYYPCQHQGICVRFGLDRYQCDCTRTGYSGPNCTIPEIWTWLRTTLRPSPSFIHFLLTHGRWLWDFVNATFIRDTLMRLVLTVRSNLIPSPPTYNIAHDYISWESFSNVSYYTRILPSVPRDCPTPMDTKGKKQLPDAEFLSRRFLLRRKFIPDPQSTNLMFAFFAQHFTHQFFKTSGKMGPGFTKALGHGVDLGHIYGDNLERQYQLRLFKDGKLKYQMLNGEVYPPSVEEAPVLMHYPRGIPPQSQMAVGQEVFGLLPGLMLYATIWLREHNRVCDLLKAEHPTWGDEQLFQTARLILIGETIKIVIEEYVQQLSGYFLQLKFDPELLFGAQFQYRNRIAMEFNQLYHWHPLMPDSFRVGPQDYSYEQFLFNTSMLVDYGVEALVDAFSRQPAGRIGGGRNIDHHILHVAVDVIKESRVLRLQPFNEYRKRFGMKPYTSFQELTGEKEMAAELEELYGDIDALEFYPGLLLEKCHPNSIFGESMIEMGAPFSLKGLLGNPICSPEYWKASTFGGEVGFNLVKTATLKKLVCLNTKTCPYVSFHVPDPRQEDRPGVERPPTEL
Assay: Inhibition of ovine COX1

`COc1cc(/C=C/C(=O)c2c(O)cc(C)c(Cl)c2C)cc(OC)c1OC` was tested, and the IC50 was 87.5 µM.
